Results as given in paper PMC6264177, “Synthesis and Characterization of (Z)-5-Arylmethylidene-rhodanines with Photosynthesis-Inhibiting Properties ^†” (Molecules, 2011).
Values joined by “and” are separate entries in the source; they are usually repeats but may differ in a detail not shown here. Equal entries are not always repeated. Where two headings read alike, the source gives them in different places.

Assays:
[1] = test system: Daucus carota L. var. sativa DC; design: method as in doi:10.1271/bbb.60.1368; settings: 0.3 mmol/L; ref [13]; cited from earlier work
[2] = test system: seeds of Daucus carota L. var. sativa DC; design: method as in doi:10.1271/bbb.60.1368; settings: 1 mmol/L; ref [13]; cited from earlier work
[3] = test system: seeds of Sesamum indicum; design: method as in doi:10.1271/bbb.60.1368; settings: 1 mmol/L; ref [13]; cited from earlier work
[4] = Lipophilicity HPLC determination (capacity factor k / log k); assay type: physicochemical; settings: RP-HPLC, C18 column, isocratic, MeOH 70% / H2O 30%
Experimental: The procedure was performed under isocratic conditions with methanol as an organic modifier in the mobile phase using an end-capped non-polar C18 stationary RP column. […] The HPLC separation process was monitored by Empower™ 2 Chromatography Data Software, Waters 2009 (Waters Corp., Milford, MA, USA). […] The detection wavelength of 210 nm was chosen. The KI methanolic solution was used for the dead time (tD) determination. Retention times (tR) were measured in minutes. […] Log k, calculated from the capacity factor k, is used as the lipophilicity index converted to log P scale.

[5] = test system: Chlorella vulgaris; test: Reduction of chlorophyll content in green algae Chlorella vulgaris; assay type: cell-based, Chlorella vulgaris Beij.; settings: 168 h; for inhibition at 100 µM: 100 μmol/L of the compound, 7-day cultivation, read-out: Chlorella vulgaris reduction of Chl. cont.; for IC50: read-out: Chlorella vulgaris IC50 (50% reduction of chlorophyll content), 7-day cultivation
Experimental: (photoperiod 16 h light/8 h dark; photosynthetically active radiation (PAR) 80 μmol/m^2s; pH 7.2). The effect of rhodanine compounds on algal chlorophyll (Chl) content was determined after 7-day cultivation in the presence of the compounds tested, expressing the response as percentage of the corresponding values obtained for control. The Chl content in the algal suspension was determined spectrophotometrically (Genesys 6, Thermo Scientific, USA) after extraction into methanol according to Wellburn [58].

[6] = test system: photosynthetic electron transport (PET) in spinach chloroplasts; test: Inhibition of photosynthetic electron transport (PET) in spinach chloroplasts, DCPIP photoreduction; assay type: biochemical, Spinacia oleracea L.; settings: DCPIP as electron acceptor, pH 7.2
Experimental: Chloroplasts were prepared from spinach (Spinacia oleracea L.) according to ref. [54]. The inhibition of photosynthetic electron transport (PET) in spinach chloroplasts was determined spectrophotometrically (Genesys 6, Thermo Scientific, USA) using an artificial electron acceptor 2,6-dichlorophenol-indophenol (DCIPP) according to ref. [55], and the rate of photosynthetic electron transport was monitored as a photoreduction of DCPIP. The measurements were carried out in phosphate buffer (0.02 mol/L, pH 7.2) containing sucrose (0.4 mol/L), MgCl2 (0.005 mol/L) and NaCl (0.015 mol/L). The chlorophyll content was 30 mg/L in these experiments, and the samples were irradiated (~100 W/m^2) from 10 cm distance with a halogen lamp (250 W) using a 4 cm water filter to prevent warming of the samples (suspension temperature 22 °C). The studied compounds were dissolved in DMSO due to their limited water solubility.

[7] = test system: photosynthetic electron transport (PET) in spinach chloroplasts; design: method as in earlier work; settings: standard DCMU; ref [56]; cited from earlier work
[8] = test system: photosynthetic electron transport; design: method as in doi:10.1584/jpestics.22.1; settings: ref [14], read-out: IC50 of PET inhibition, cited from earlier work
[9] = test system: cotyledons of Brassica rapa L.; settings: 0.3 mmol/L; ref [11]; cited from earlier work
[10] = test system: immature cells of Marchantia polymorpha; design: method as in doi:10.1584/jpestics.22.1; settings: 1 mmol/L, within 90 hours; ref [14]; cited from earlier work

Compound	log k [4]	IC50 [6]	inhibition at 100 µM [5]	other results
O=C(O)CN1C(=O)CSC1=S [rhodanine-N-acetic acid]	–	–	–	inhibition of growth of Daucus carota [1]: strongly inhibited; inhibition of germination of seeds of Daucus carota [2]: inhibited; inhibition of germination of seeds of Sesamum indicum [3]: inhibited
CN(C)c1ccc(/C=C2\SC(=S)NC2=O)cc1 [Compound 6, (5Z)-5-[(4-Dimethylamino)benzylidene]-2-thioxo-1,3-thiazolidin-4-one]	0.6466	–	12.6%	–
O=C1NC(=S)S/C1=C\c1ccncc1 [Compound 14, (5Z)-5-(Pyridin-4-ylmethylidene)-2-thioxo-1,3-thiazolidin-4-one]	0.1878	–	–	–
O=C1NC(=S)S/C1=C\c1ccccn1 [Compound 12, (5Z)-5-(Pyridin-2-ylmethylidene)-2-thioxo-1,3-thiazolidin-4-one]	0.4864	–	–	–
O=C1NC(=S)S/C1=C\c1cnccn1 [Compound 15, (5Z)-5-(Pyrazin-2-ylmethylidene)-2-thioxo-1,3-thiazolidin-4-one]	0.2359	216 µM	1.8%	–
O=C1NC(=S)S/C1=C\c1ccccc1O [Compound 2a, (5Z)-5-(2-Hydroxybenzylidene)-2-thioxo-1,3-thiazolidin-4-one]	0.4664	369 µM	59%	IC50 [5]: 59.4 µM
CN(C)C(=O)Nc1ccc(Cl)c(Cl)c1 [DCMU, 3-(3,4-dichlorophenyl)-1,1-dimethylurea]	–	–	–	IC50 [5]: ~7.3 µM; IC50 [7]: ~1.9 µM and 1.9 µM
O=C1NC(=S)S/C1=C\c1ccc(O)cc1O [Compound 3, (5Z)-5-(2,4-Hydroxybenzylidene)-2-thioxo-1,3-thiazolidin-4-one]	0.2776	–	48.5%	IC50 [5]: 108 µM
O=C1NC(=S)S/C1=C\c1cccnc1 [Compound 13, (5Z)-5-(Pyridin-3-ylmethylidene)-2-thioxo-1,3-thiazolidin-4-one]	0.4539	–	–	–
O=C1NC(=S)S/C1=C\c1cccc(O)c1 [Compound 2b, (5Z)-5-(3-Hydroxybenzylidene)-2-thioxo-1,3-thiazolidin-4-one]	0.2744	444 µM	9.6%	–
O=C1NC(=S)S/C1=C\c1ccco1 [Compound 16, (5Z)-5-(Furan-2-ylmethylidene)-2-thioxo-1,3-thiazolidin-4-one]	0.4656	–	–	–
COc1cc(/C=C2\SC(=S)NC2=O)ccc1O [Compound 5, (5Z)-5-(4-Hydroxy-3-methoxybenzylidene)-2-thioxo-1,3-thiazolidin-4-one]	0.3553	–	19.4%	–
O=C1CSC(=S)N1 [rhodanine]	–	–	–	IC50 ([8]; assay done after illumination for 3 min): 100 µM; IC50 ([8]; normal 1 min assay): ~1000 µM; inhibition of growth of Daucus carota [1]: strongly inhibited; inhibition of germination of seeds of Daucus carota [2]: inhibited; inhibition of germination of seeds of Sesamum indicum [3]: inhibited; inhibition of chlorophyll synthesis in cotyledons [9]: strongly inhibited; inhibition of growth of immature cells [10]: completely inhibited
O=C1NC(=S)S/C1=C\c1ccc(O)cc1 [Compound 2c, (5Z)-5-(4-Hydroxybenzylidene)-2-thioxo-1,3-thiazolidin-4-one]	0.2641	–	29.8%	–

Now from value to compound, other results behind:

log k [4]	IC50 [6]	Compound	inhibition at 100 µM [5]	other results
0.5867	–	COc1ccccc1/C=C1\SC(=S)NC1=O [Compound 4a, (5Z)-5-(2-Methoxybenzylidene)-2-thioxo-1,3-thiazolidin-4-one]	–	–
0.2436	20.1 µM	O=C1NC(=S)S/C1=C\c1ccc([N+](=O)[O-])cc1 [Compound 7c, (5Z)-5-(4-Nitrobenzylidene)-2-thioxo-1,3-thiazolidin-4-one]	87.1%	IC50 [5]: 21.9 µM
1.0820	5.2 µM	O=C1NC(=S)S/C1=C\c1cccc(Br)c1 [Compound 10b, (5Z)-5-(3-Bromobenzylidene)-2-thioxo-1,3-thiazolidin-4-one]	–	–
0.9019	53.3 µM	O=C1NC(=S)S/C1=C\c1ccccc1Cl [Compound 9a, (5Z)-5-(2-Chlorobenzylidene)-2-thioxo-1,3-thiazolidin-4-one]	–	–
0.6940	3 µM	O=C1NC(=S)S/C1=C\c1ccc(Br)cc1 [Compound 10c, (5Z)-5-(4-Bromobenzylidene)-2-thioxo-1,3-thiazolidin-4-one]	–	–
0.5936	6 µM	O=C1NC(=S)S/C1=C\c1ccc(Cl)cc1 [Compound 9c, (5Z)-5-(4-Chlorobenzylidene)-2-thioxo-1,3-thiazolidin-4-one]	84.8%	IC50 [5]: 1.3 µM
0.2254	428 µM	O=C1NC(=S)S/C1=C\c1ccccc1[N+](=O)[O-] [Compound 7a, (5Z)-5-(2-Nitrobenzylidene)-2-thioxo-1,3-thiazolidin-4-one]	–	–
0.8108	99.5 µM	O=C1NC(=S)S/C1=C\c1ccccc1F [Compound 8a, (5Z)-5-(2-Fluorobenzylidene)-2-thioxo-1,3-thiazolidin-4-one]	–	–
0.8204	23.8 µM	O=C1NC(=S)S/C1=C\c1cccc(F)c1 [Compound 8b, (5Z)-5-(3-Fluorobenzylidene)-2-thioxo-1,3-thiazolidin-4-one]	–	–
0.5425	174 µM	COc1ccc(/C=C2\SC(=S)NC2=O)cc1 [Compound 4c, (5Z)-5-(4-Methoxybenzylidene)-2-thioxo-1,3-thiazolidin-4-one]	–	–
1.0270	17 µM	O=C1NC(=S)S/C1=C\c1cccc(Cl)c1 [Compound 9b, (5Z)-5-(3-Chlorobenzylidene)-2-thioxo-1,3-thiazolidin-4-one]	–	–
0.6349	–	O=C1/C(=C/c2ccc([N+](=O)[O-])cc2)SC(=S)N1CCO [Compound 11c, (5Z)-3-(2-Hydroxyethyl)-5-(4-nitrobenzylidene)-2-thioxo-1,3-thiazolidin-4-one]	–	–
0.6077	–	O=C1/C(=C/c2cccc([N+](=O)[O-])c2)SC(=S)N1CCO [Compound 11b, (5Z)-3-(2-Hydroxyethyl)-5-(3-nitrobenzylidene)-2-thioxo-1,3-thiazolidin-4-one]	–	–
0.4751	127 µM	O=C1/C(=C/c2ccccc2[N+](=O)[O-])SC(=S)N1CCO [Compound 11a, (5Z)-3-(2-Hydroxyethyl)-5-(2-nitrobenzylidene)-2-thioxo-1,3-thiazolidin-4-one]	–	–
0.7909	63.5 µM	O=C1NC(=S)S/C1=C\c1ccc(F)cc1 [Compound 8c, (5Z)-5-(4-Fluorobenzylidene)-2-thioxo-1,3-thiazolidin-4-one]	–	–
0.9368	18.1 µM	O=C1NC(=S)S/C1=C\c1ccccc1Br [Compound 10a, (5Z)-5-(2-Bromobenzylidene)-2-thioxo-1,3-thiazolidin-4-one]	–	–
0.5713	221 µM	COc1cccc(/C=C2\SC(=S)NC2=O)c1 [Compound 4b, (5Z)-5-(3-Methoxybenzylidene)-2-thioxo-1,3-thiazolidin-4-one]	–	–
0.2399	16.9 µM	O=C1NC(=S)S/C1=C\c1cccc([N+](=O)[O-])c1 [Compound 7b, (5Z)-5-(3-Nitrobenzylidene)-2-thioxo-1,3-thiazolidin-4-one]	85.7%	IC50 [5]: 4.4 µM
